Source: patent US10004679B2, “Compositions of Amorphophallus konjac and methods for their use in skin care” (Vidya Herbs, Inc., priority 2014, dated 2018)

How the values were obtained:
Type in all cases: biochemical
[1] = molecular target: Porcine pancreatic elastase (Sus scrofa, UniProt P00772); experiment: In vitro anti-elastase activity
Experimental: The assay employed was based on methods from the literature. This assay was performed in 0.2 mM Tris-HCL buffer (pH 8.0). Porcine pancreatic elastase (PE-E.C.3.4.21.36) was dissolved to make a 3.33 mg/mL stock solution in sterile water. The substrate N-succinyl-Ala-Ala-Ala-p-nitroanilide (AAAPVN) was dissolved in buffer at 1.6 mM. The test extracts were incubated with the enzyme for 15 minutes before adding substrate to begin the reaction. The final reaction mixture (250 μL total volume) contained buffer, 0.8 mM AAAPVN,1 mg/mL PE and 25 mg test extract. EGCG (1 mg/mL) was used as a positive control. Negative controls were performed using water. Absorbance values between 381 and 402 nm (following pre-screen scans) were measured immediately following addition of the substrate and then continuous for 20 minutes. FIG. 6

[2] = system: Collagenase from Clostridium histolyticum; experiment: In vitro anti-collagenase activity (FALGPA substrate)
Experimental: The assay employed was based on spectrophotometric methods reported in the literature. The assay was performed in 50 mM Tricine buffer (pH 7.5 with 400 mM NaCl and 10 mM CaCl2). Collagenase from Clostridium histolyticum (ChC-[…]) was dissolved in buffer for use at an initial concentration of 0.8 units/mL according to the supplier's activity data. The synthetic substrate N-[3-(2-furyl)acryloyl]-Leu-Gly-Pro-Ala (FALGPA) was dissolved in Tricine buffer to 2 mM. […] The final reaction mixture (150 μL total volume) contained Tricine buffer, 0.8 mM FALGPA, 0.1 units ChC and 20-100 μg test extracts. Negative controls were performed with water. Absorbance at 335 nm was measured immediately after adding substrate and then continuous for 20 minutes. EGCG, 250 μM (0.114 mg/mL) was used as a positive control. FIG. 9

Mushroom tyrosinase = experiment: In vitro anti-tyrosinase activity (L-DOPA, dopachrome at 475 nm)
Experimental: Mushroom tyrosinase (Prod. No. T7755) and L-DOPA were purchased from Sigma Adrich. […] We also prepared positive controls of lmg/mL kojic acid solutions (with water), with enzyme. Twenty 20 μL of 0.85 mM L-DOPA solution as the substrate was added into every sample and blank. These assay mixtures were incubated at 25° C. for 10 min. The amount of dopachrome produced in the reaction mixture was measured at 475 nm.

Porcine pancreatic elastase, sequence (P00772 27-266): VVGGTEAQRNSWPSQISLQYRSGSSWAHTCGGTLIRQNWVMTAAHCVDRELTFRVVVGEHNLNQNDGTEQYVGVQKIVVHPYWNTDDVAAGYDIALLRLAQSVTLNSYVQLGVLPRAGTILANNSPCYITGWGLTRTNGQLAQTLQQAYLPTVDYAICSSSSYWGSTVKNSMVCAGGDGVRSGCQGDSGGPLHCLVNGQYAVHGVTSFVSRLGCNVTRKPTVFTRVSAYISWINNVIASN

% inhibition of tyrosinase activity (Mushroom tyrosinase; 20 μg/ml) [%]	% inhibition of tyrosinase activity (Mushroom tyrosinase; 40 μg/ml) [%]	% inhibition of tyrosinase activity (Mushroom tyrosinase; 60 μg/ml) [%]	% inhibition of tyrosinase activity (Mushroom tyrosinase; 80 μg/ml) [%]	% inhibition of tyrosinase activity (Mushroom tyrosinase; 100 μg/ml) [%]	SMILES	% inhibition of Elastase activity ([1]; 20 μg/ml) [%]	% inhibition of Elastase activity ([1]; 40 μg/ml) [%]	% inhibition of Elastase activity ([1]; 60 μg/ml) [%]	% inhibition of Elastase activity ([1]; 80 μg/ml) [%]	% inhibition of Elastase activity ([1]; 100 μg/ml) [%]	% inhibition of Collagenase activity ([2]; 20 μg/ml) [%]	% inhibition of Collagenase activity ([2]; 40 μg/ml) [%]	% inhibition of Collagenase activity ([2]; 60 μg/ml) [%]	% inhibition of Collagenase activity ([2]; 80 μg/ml) [%]	% inhibition of Collagenase activity ([2]; 100 μg/ml) [%]
–	–	–	–	–	O=C(O[C@@H]1Cc2c(O)cc(O)cc2O[C@@H]1c1cc(O)c(O)c(O)c1)c1cc(O)c(O)c(O)c1 [EGCG, epigallocatechin gallate]	43.98	54.36	53.32	60.37	62.45	8.30	16.93	25.83	32.70	41.52
64.46	77.66	88.32	91.37	93.90	O=c1cc(CO)occ1O [Kojic acid, kojic acid]	–	–	–	–	–	–	–	–	–	–
